Data reported in patent US8399676B2, “Piperidine derivatives” (Hoffman-La Roche Inc., priority 2009, dated 2013).

The compounds below were run against T1, human HSL (Homo sapiens, UniProt Q05469) (assay: Human Hormone-Sensitive Lipase (HSL) enzyme inhibition assay (colorimetric, DMPT substrate)). Conditions: read-out: HSL hum IC50.
T1 construct: generate a full length human HSL ORF with a 3′-His6 tag; His6 (C); made in house; host or cells: High 5 insect cells (baculovirus, pFast-BAC)
T1 sequence (Q05469 1-1076): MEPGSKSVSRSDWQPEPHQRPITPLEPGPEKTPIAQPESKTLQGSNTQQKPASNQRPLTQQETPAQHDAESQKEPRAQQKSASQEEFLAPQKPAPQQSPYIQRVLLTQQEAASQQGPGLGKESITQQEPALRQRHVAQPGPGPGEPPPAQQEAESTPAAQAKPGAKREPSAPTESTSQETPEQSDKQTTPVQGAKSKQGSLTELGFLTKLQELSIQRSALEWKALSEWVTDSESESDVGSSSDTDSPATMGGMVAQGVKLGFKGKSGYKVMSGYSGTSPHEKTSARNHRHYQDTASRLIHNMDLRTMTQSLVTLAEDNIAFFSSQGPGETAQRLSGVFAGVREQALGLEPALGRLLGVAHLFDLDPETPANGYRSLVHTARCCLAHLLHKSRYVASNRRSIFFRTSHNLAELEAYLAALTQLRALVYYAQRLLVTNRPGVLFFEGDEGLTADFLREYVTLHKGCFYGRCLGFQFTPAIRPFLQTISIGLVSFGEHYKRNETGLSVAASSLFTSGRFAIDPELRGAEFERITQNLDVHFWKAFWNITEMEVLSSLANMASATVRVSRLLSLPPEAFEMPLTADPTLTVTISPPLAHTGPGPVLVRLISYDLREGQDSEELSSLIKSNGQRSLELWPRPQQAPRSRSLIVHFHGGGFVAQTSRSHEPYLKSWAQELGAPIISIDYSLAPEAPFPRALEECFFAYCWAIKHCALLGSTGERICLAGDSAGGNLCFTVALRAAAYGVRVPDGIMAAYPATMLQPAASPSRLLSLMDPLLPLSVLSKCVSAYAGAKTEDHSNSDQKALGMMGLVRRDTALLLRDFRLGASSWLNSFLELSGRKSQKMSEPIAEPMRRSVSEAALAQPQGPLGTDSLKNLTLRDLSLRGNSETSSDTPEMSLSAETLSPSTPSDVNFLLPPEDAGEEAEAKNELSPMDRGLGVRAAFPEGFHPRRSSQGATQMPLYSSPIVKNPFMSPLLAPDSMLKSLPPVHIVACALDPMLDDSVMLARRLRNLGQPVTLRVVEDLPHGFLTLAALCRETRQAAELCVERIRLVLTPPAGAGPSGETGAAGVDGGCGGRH
Format: biochemical
Outline: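 Full-length human HSL carrying a C-terminal His6 tag was expressed in High 5 insect cells via baculovirus and purified on Ni-NTA. Compounds from 3-fold DMSO series were mixed with 1.5 mM DMPT substrate suspension in 100 mM MOPS pH 7.2 with 0.2 mg/ml fatty acid-free BSA, then enzyme (15 ug/ml) was added for 20 minutes at 37 °C. Released thiol was detected with DTNB plus SDS/Triton X-100 (15 minutes, room temperature) at 405 nm.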
`CCc1ccc(NC(=O)C2(N)CCN(Cc3ccc(C(C)C)cc3)CC2)cc1` [Example 158, 4-Amino-1-(4-isopropyl-benzyl)-piperidine-4-carboxylic acid (4-ethyl-phenyl)-amide] gave an IC50 of 460 nM. Compound `Cc1ccc(S(=O)(=O)N2CCC(O)(C(=O)Nc3ccc(OC(F)(F)F)cc3)CC2)cc1` [Example 60, 4-Hydroxy-1-(toluene-4-sulfonyl)-piperidine-4-carboxylic acid (4-trifluoromethoxy-phenyl)-amide] has an IC50 of 220 nM. In the case of `NC1(C(=O)Nc2ccc(Cl)cc2)CCN(S(=O)(=O)c2ccccc2Cl)CC1` [Example 95, 4-Amino-1-(2-chloro-benzenesulfonyl)-piperidine-4-carboxylic acid (4-chloro-phenyl)-amide], the IC50 is reported as 190 nM.
